Source: BindingDB's records for doi:10.1038/nchembio.2168 (Novartis Institutes, 2016)

Experiments:
[1] = biological target: T1, Serine/threonine-protein kinase WNK1 [1-491] (Homo sapiens, UniProt Q9H4A3); assay: In vitro MBP Phosphorylation Assay (MBP); settings: pH 7.3; 25 °C
T1 construct: 1-491
Protocol: (§1) Each well of the MBP-coated ScintiPlates held 100 ul of a solution containing 20 mM HEPES pH 7.3, 5 mM MnCl2 (WNK1 and WNK4) or 3 mM MnCl2 (WNK2 and WNK3), 0.01% Tween-20 (WNK1, WNK3 and WNK4) or 0.02% Tween-20 (WNK2), 1 mM TCEP, 2% DMSO, 1 uM ATP (WNK1, WNK3 and WNK4) or 2 uM ATP (WNK2), 1 uCi [gamma-33P]ATP (WNK1, WNK2, WNK4) or 0.25 uCi [gamma-33P]ATP (WNK3), WNK kinase enzyme (5 nM WNK1, 10 nM WNK2, 5 nM WNK3 or 10 nM WNK4) and compound at the desired concentration. The plate was sealed with a clear adhesive cover and mixed for 20 s at 800 r.p.m. on a bench top plate shaker. The plate was then placed in a 25 °C shaking incubator at 175 r.p.m for 3 h (WNK1 and WNK4), 2 h (WNK3) or 1 h (WNK2). The kinase reaction was stopped by the addition of 50 ul of 45 mM EDTA, 0.01% Tween-20, and 20 mM HEPES, pH 7.3. The content of each well was then aspirated, and the well was washed three times with 300 ul of 150 mM NaCl, 0.02% Tween-20, and 50 mM Tris-HCl pH 7.4. Incorporation of 33P into the bound MBP substrate was measured using a MicroBeta TriLux LSC and Luminescence plate counter.

[2] = biological target: T1, Serine/threonine-protein kinase WNK1 [1-491]; assay: In vitro OSR1 Phosphorylation Assay (OSR1); settings: pH 7.3; 4 °C
Protocol: 0.2 nM GST-hWNK1(1-491) (Carna Biosciences, cat# 05-179); 3.5 ug/ml GST-OSR1; 20 mM HEPES; 0.01% Tween; 5 mM MnCl2; 1 mM TCEP; 2% DMSO; 0.5 uM ATP, pH 7.3 (total volume 40 ul) were incubated for 15 min at room temperature. Samples were […] mixed with Laemmli sample buffer and resolved on a 10% Tris-glycine gel, and transferred to nitrocellulose. Membranes were blocked in 5% non-fat milk dissolved in Tris-buffered saline with tween (TBST) for 30 min, washed 3x for 10 min in TBST and incubated with phospho-OSR1 antibody (1:1,000; see Reagents section) at […] overnight. Blots were again washed with TBST and incubated with HRP-conjugated anti-rabbit IgG (1:2,500; catalog # 7074, Cell Signaling) at room temperature for 30 min. Blots were again washed and developed with SuperSignal West Femto Maximum Sensitivity Chemiluminescent Substrate for HRP (Thermo Scientific), and quantified with a Fujifilm LAS-3000 Luminescent Image Analyzer.

[3] = biological target: T2, Serine/threonine-protein kinase WNK1 [166-489] (Homo sapiens, UniProt Q9H4A3); assay: In vitro MBP Phosphorylation Assay (MBP); settings: pH 7.3; 25 °C
T2 construct: 166-489
T2 sequence (Q9H4A3 166-489): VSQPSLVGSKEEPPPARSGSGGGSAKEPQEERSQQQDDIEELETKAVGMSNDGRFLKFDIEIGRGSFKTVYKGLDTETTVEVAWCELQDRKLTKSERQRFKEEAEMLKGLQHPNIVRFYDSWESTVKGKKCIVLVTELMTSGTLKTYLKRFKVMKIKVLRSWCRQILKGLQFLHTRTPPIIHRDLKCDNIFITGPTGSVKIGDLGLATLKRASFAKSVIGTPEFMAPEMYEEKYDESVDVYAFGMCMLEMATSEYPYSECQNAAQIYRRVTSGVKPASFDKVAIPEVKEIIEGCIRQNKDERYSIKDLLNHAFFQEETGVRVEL
Protocol: as §1

[4] = biological target: T3, Serine/threonine-protein kinase WNK1 [1-444] (Homo sapiens, UniProt Q9H4A3); assay: In vitro MBP Phosphorylation Assay (MBP); settings: pH 7.3; 25 °C
T3 construct: 1-444
T3 sequence (Q9H4A3 1-444): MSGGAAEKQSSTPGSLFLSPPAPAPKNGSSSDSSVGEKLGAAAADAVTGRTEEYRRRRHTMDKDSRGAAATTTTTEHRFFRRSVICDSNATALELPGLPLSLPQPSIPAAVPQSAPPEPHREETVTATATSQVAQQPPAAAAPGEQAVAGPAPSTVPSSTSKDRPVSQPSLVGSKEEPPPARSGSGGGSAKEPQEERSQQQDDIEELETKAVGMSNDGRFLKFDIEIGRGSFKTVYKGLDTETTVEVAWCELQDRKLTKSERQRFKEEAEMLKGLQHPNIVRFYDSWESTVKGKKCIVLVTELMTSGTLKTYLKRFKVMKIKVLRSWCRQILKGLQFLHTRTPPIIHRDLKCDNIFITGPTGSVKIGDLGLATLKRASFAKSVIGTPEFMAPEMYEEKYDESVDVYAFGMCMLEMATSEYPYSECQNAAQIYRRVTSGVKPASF
Protocol: as §1

[5] = biological target: T4, Serine/threonine-protein kinase WNK1 [1-434] (Homo sapiens, UniProt Q9H4A3); assay: In vitro MBP Phosphorylation Assay (MBP); settings: pH 7.3; 25 °C
T4 construct: 1-434
T4 sequence (Q9H4A3 1-434): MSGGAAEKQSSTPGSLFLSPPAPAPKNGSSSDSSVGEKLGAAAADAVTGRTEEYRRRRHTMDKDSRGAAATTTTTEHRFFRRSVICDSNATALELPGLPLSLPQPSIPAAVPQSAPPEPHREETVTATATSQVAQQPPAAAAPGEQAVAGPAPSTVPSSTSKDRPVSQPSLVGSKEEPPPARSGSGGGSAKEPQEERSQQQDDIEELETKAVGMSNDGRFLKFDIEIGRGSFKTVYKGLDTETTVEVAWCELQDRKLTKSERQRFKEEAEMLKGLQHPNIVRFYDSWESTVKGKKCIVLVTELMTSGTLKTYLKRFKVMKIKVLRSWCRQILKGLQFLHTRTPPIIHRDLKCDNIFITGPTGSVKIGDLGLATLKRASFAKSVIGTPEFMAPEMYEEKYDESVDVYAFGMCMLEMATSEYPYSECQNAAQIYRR
Protocol: as §1

T1 sequence (Q9H4A3 1-491): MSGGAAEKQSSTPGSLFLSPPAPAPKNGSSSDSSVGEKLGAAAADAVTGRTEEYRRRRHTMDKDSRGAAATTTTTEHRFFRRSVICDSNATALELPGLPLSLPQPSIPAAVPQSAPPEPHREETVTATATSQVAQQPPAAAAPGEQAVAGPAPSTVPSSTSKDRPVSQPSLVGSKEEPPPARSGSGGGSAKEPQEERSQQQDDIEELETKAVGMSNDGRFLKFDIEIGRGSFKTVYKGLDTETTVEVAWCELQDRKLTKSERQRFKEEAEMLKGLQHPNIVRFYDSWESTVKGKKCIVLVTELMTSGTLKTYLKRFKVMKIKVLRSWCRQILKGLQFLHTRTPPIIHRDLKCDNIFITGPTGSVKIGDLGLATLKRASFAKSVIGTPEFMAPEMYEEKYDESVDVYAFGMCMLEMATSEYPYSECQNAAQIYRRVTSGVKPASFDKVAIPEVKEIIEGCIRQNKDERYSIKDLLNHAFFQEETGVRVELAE

Structure (SMILES) | IC50 [1] [nM] | IC50 [2] [nM] | IC50 [3] [nM] | IC50 [4] [nM] | IC50 [5] [nM]
COc1ccc(CC(=O)N2CCC(n3cncc3C(=O)NCCc3ccccc3)C2)cc1 [(R)-1-(1-(2-(4-methoxyphenyl)acetyl)pyrrolidin-3-yl)-N-phenethyl-1H-imidazole-5-carboxamide (1)] | 856 |  |  |  | 
CC(C)(C)NC(=O)c1cncn1C1CCN(c2ccc(-c3nnc(C(F)(F)F)o3)cc2)CC1 [WNK463 (2)] | 5 | 41 | 1 | 9 | 6
